The target in one assay is T1, Syk kinase (Homo sapiens, UniProt P43405).
T1 construct: purchased
Put plainly: Syk kinase inhibition, Caliper LabChip off-chip mobility-shift kinase assay. The class given is biochemical. The note with it: Caliper LabChip assay; read-out: Syk Enzyme IC50. The essentials: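 Purified Syk pre-incubated 15 min with compound in 100 mM HEPES pH 7.5, 1 mM DTT, 10 mM MgCl2 or MnCl2, 0.002% Brij-35, then 1.5 μM fluorescein peptide and ATP at apparent KM added; 1–1.5 h at room temperature, 4% DMSO, EDTA stop. Microfluidic mobility-shift product/substrate conversion gave % inhibition; IC50 from 12-point series (10–0.00003 μM) by 4-parameter fit.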
By IC50 is commonly meant the midpoint of a concentration-inhibition curve. Consider `CC(C)(C)Nc1nc(-c2cnc(N)nc2)cc2ccn(CC3(CO)COC3)c(=O)c12` [compound 923], for which the 50% inhibitory concentration (IC50) was determined as 10 nM.
Take `CC(C)(C)Nc1nc(Nc2cc(C(C)(C)O)ccn2)cc2ccn(CC(N)=O)c(=O)c12` [compound 726]: the half-maximal inhibitory concentration (IC50) came to 108 nM.
Consider `Nc1ncc(-c2cc3ccn(CCO)c(=O)c3c(N[C@H]3CC[C@@H](O)CC3)n2)cn1` [compound 1028], for which the concentration for half-maximal inhibition (IC50) came out at 14 nM.
Take `CC(C)(C)Nc1nc(Nc2cc(C(C)(C)O)ncn2)cc2ccn(CCS(C)(=O)=O)c(=O)c12` [compound 739]: the concentration for half-maximal inhibition (IC50) was found to be 35 nM.
For `NC(=O)Cn1ccc2cc(-c3cnc(N)nc3)nc(NC3CC(F)(F)C3)c2c1=O` [compound 759], the IC50 came to 175 nM.
With `Cn1ccc2cc(Nc3nccc(O)n3)nc(Nc3ccc(C(=O)N4CCOCC4)cc3)c2c1=O` [compound 805], the IC50 stood at 752 nM.
For `Cc1ccnc(Nc2cc3ccn(CCO)c(=O)c3c(NC3CCS(=O)(=O)C3)n2)c1` (stereo not drawn) [compound 974], the IC50 was found to be 203 nM.
Turning to `CCn1ccc2cc(Nc3cnccn3)nc(NC3CCCC(O)C3)c2c1=O` (stereo not drawn) [compound 973], the 50% inhibitory concentration (IC50) amounted to 26 nM.
As for `C/C(=N\OCCN(C)C)c1ccnc(Nc2cc3ccn(CCO)c(=O)c3c(NC(C)(C)C)n2)c1` [compound 686], the 50% inhibitory concentration (IC50) is 246 nM.
Consider `CC(C)(O)COc1cc(Nc2cc3ccn(CCO)c(=O)c3c(NC(C)(C)C)n2)ncn1` [compound 641], for which the IC50 worked out at 56 nM.
In the case of `CCn1ccc2cc(Nc3cc(C)ccn3)nc(NCCC(F)(F)F)c2c1=O` [compound 780], the IC50 came out at 862 nM.
For `CC(C)(C)Nc1nc(Nc2cc(C(=O)NCCc3c[nH]cn3)ccn2)cc2ccn(CCO)c(=O)c12` [compound 687], the 50% inhibitory concentration (IC50) worked out at 248 nM.
Regarding `CC1(O)CN(c2cc(Nc3cc4ccn(CCO)c(=O)c4c(NC(C)(C)C)n3)ncn2)C1` [compound 630, 8-(tert-butylamino)-6-(6-(3-hydroxy-3-methylazetidin-1-yl)pyrimidin-4-ylamino)-2-(2-hydroxyethyl)-2,7-naphthyridin-1(2H)-one], the half-maximal inhibitory concentration (IC50) stood at 204 nM.
Take `CC(C)(C)Nc1nc(-c2cnc(N)nc2)cc2ccn(CC(=O)O)c(=O)c12` [compound 667]: the IC50 was found to be 23 nM.
With `Cn1ccc2cc(Nc3nccc(O)n3)nc(Nc3ccc(C(N)=O)cc3)c2c1=O` [compound 804], the IC50 turned out to be 194 nM.
`CC1(Nc2nc(Nc3cnccn3)cc3ccn(CCO)c(=O)c23)CC1` [compound 838]: the concentration for half-maximal inhibition (IC50) came to 17 nM.
For `CC(C)n1ccc2cc(Nc3cnccn3)nc(N[C@H]3CC[C@H](O)CC3)c2c1=O` [compound 965], the IC50 is 61 nM.
Take `CCn1ccc2cc(Nc3cnccn3)nc(N[C@H]3CCC[C@H]3O)c2c1=O` [compound 938]: the IC50 is 24 nM.
Consider `CCn1ccc2cc(-c3cnc(N)nc3)nc(N[C@H]3CC[C@@H](O)C3)c2c1=O` [compound 1039], for which the IC50 amounted to 12 nM.
As to `[2H][C@]1(O)CC[C@H](Nc2nc(Nc3cnccn3)cc3ccn(CC)c(=O)c23)CC1` [compound 991], the IC50 worked out at 29 nM.
For `CCn1ccc2cc(Nc3cc(C)ccn3)nc(N)c2c1=O` [compound 801], the IC50 came out at 1900 nM.
Same read-out and setting: next, `CC(C)n1ccc2cc(-c3cnc(N)nc3)nc(N[C@H]3CC[C@@H](O)CC3)c2c1=O` [compound 1027]: 32 nM; `O=c1c2c(N[C@H]3CC[C@@H](O)CC3)nc(Nc3cnccn3)cc2ccn1CC(F)(F)F` [compound 1025]: 16 nM; `CCn1ccc2cc(-c3cnc(N)nc3)nc(NC3(CO)CCC3)c2c1=O` [compound 905]: < 1.01 nM.
For the compound `O=c1c2c(N[C@H]3CC[C@H](O)CC3)nc(Nc3cnccn3)cc2ccn1CCO` [compound 989], the IC50 stood at 15 nM.

Staying with this assay, now noted: read-out: Syk Enzyme IC50.
For the compound `COCCC(=O)N1CCC(c2ccc(Nc3nc(-c4cncc(OC)n4)cc4cc[nH]c(=O)c34)cc2)CC1` [compound 26], the IC50 was 72 nM.
In the case of `CCc1ccnc(Nc2cc3ccn(CC)c(=O)c3c(NC(C)C)n2)c1` [compound 304], the IC50 worked out at 384 nM.
With `CCN1CCC[C@@H]1CNc1nc(Nc2cc(C)ccn2)cc2cc[nH]c(=O)c12` [compound 589], the concentration for half-maximal inhibition (IC50) is 5560 nM.
Turning to `O=c1[nH]ccc2cc(CCO)nc(Nc3ccc(N4CCOCC4)cc3)c12` [compound 244], the IC50 came out at 31 nM.
On to `COCCNC(=O)c1ccc(Nc2nc(-c3cnc(C)nc3)cc3cc[nH]c(=O)c23)cc1` [compound 74], for which the IC50 turned out to be 29 nM.
Same read-out and setting: next, `COCCNC(=O)c1ccc(Nc2nc(-c3cncc(OC)n3)cc3cc[nH]c(=O)c23)cc1` [compound 59]: 168 nM; `C[C@@H](CO)Nc1nc(Nc2cnccn2)cc2ccn(CCO)c(=O)c12` [compound 373]: 27 nM.
Consider `CCC(C)Nc1nc(Nc2cc(C)ccn2)cc2cc[nH]c(=O)c12` (stereo not drawn) [compound 262], for which the half-inhibitory concentration (IC50) came out at 201 nM.
Consider `COCC(C)Nc1nc(Nc2cc(C)ccn2)cc2cc[nH]c(=O)c12` (stereo not drawn) [compound 266], for which the IC50 came out at 74 nM.
For `COc1cncc(-c2cc3cc[nH]c(=O)c3c(Nc3ccc(C4CCN(C(C)=O)CC4)c(C)c3)n2)n1` [compound 144], the half-inhibitory concentration (IC50) was 92 nM.
In the case of `CN1CC(c2ccc(Nc3nc(-c4cncnc4)cc4cc[nH]c(=O)c34)cc2)C1` [compound 138], the 50% inhibitory concentration (IC50) stood at 26 nM.
Turning to `COCC(O)CN1CCC(c2ccc(Nc3nc(-c4cncc(OC)n4)cc4cc[nH]c(=O)c34)cc2C)CC1` (stereo not drawn) [compound 142], the 50% inhibitory concentration (IC50) turned out to be 7 nM.
As to `COc1cncc(-c2cc3c(F)c[nH]c(=O)c3c(Nc3ccc(N4CCOCC4)cc3)n2)n1` [compound 432], the IC50 stood at 623 nM.
`Nc1ncc(-c2cc3cc[nH]c(=O)c3c(N[C@@H]3CCC[C@H]3O)n2)cn1` [compound 184]: the IC50 came to 59 nM.
The same measure, in the same setting: then `COc1cncc(-c2cc3cc[nH]c(=O)c3c(Nc3ccc(C4=CCSCC4)c(C)c3)n2)n1` [compound 12], with 3430 nM.
Regarding `CCn1ccc2cc(Nc3cnccn3)nc(N[C@H]3CCCC[C@@H]3O)c2c1=O` (racemic) [compound 407], the concentration for half-maximal inhibition (IC50) was 301 nM.
Regarding `O=c1[nH]ccc2cc(Nc3cc(C(F)(F)F)ccn3)nc(NC3CC3)c12` [compound 517], the IC50 was found to be 386 nM.
The same measure, in the same setting: then `COc1cncc(-c2cc3cc[nH]c(=O)c3c(Nc3ccc(C4CCC(N(C)C)CC4)cc3)n2)n1` (stereo not drawn) [compound 109], with 31 nM; and `O=c1[nH]ccc2cc(C3=CCSCC3)nc(Nc3ccc(N4CCOCC4)cc3)c12` [compound 14], with 809 nM.
As to `CCN1CCN(C(=O)c2ccc(Nc3nc(-c4cncc(OC)n4)cc4cc[nH]c(=O)c34)cc2)CC1` [compound 64], the IC50 came to 35 nM.
On to `Cc1ncc(-c2cc3cc[nH]c(=O)c3c(Nc3ccc(C4CCN(CCC#N)CC4)c(C)c3)n2)cn1` [compound 73], for which the 50% inhibitory concentration (IC50) came to 81 nM.
`CCN1CCN(CCc2ccc(Nc3nc(-c4cnn(C)c4)cc4cc[nH]c(=O)c34)cc2)CC1` [compound 441]: the IC50 was determined as 58 nM.
Turning to `CO/N=C(\C)c1cc2cc[nH]c(=O)c2c(Nc2ccc(C3CCN(C4CC4)CC3)c(C)c2)n1` [compound 237], the half-maximal inhibitory concentration (IC50) was 407 nM.
Consider `Cc1cc(Nc2nc(-c3cncc(NC4CC4)n3)cc3cc[nH]c(=O)c23)ccc1C1CCN(CCC#N)CC1` [compound 68], for which the 50% inhibitory concentration (IC50) came to 89 nM.
For `Cc1cc(Nc2cc3ccn(CCO)c(=O)c3c(NC(C)(C)CO)n2)ncc1F` [compound 498], the IC50 came out at 76 nM.
Same read-out and setting: then `O=c1[nH]ccc2cc(Nc3ccccn3)nc(NC3CCOC3)c12` (stereo not drawn) [compound 287], with 148 nM.
On the same count and under the same terms, next, `Cc1ccnc(Nc2cc3c(F)cn(C)c(=O)c3c(NC(C)C)n2)c1` [compound 567]: 978 nM.
As to `Cc1ccnc(Nc2cc3cc[nH]c(=O)c3c(NC3CCOC3)n2)c1` (stereo not drawn) [compound 273], the half-maximal inhibitory concentration (IC50) came to 42 nM.
With `Nc1ncc(-c2cc3cc[nH]c(=O)c3c(NC3CCC3)n2)cn1` [compound 453], the concentration for half-maximal inhibition (IC50) came out at 162 nM.
As for `COc1cncc(-c2cc3cc[nH]c(=O)c3c(Nc3ccc(C4CCN(CCC#N)C4)cc3)n2)n1` (stereo not drawn) [compound 65], the IC50 was determined as 30 nM.
For `COC[C@H](C)Nc1nc(Nc2cc(C)ccn2)cc2cc[nH]c(=O)c12` [compound 530], the half-inhibitory concentration (IC50) amounted to 97 nM.
As to `CCOC(C)c1cc2cc[nH]c(=O)c2c(Nc2ccc(N3CCO[C@H](C)C3)c(C)c2)n1` (stereo partly drawn) [compound 233], the IC50 was 754 nM.
`COCCNc1nc(Nc2cc(C)ccn2)cc2cc[nH]c(=O)c12` [compound 527]: the half-maximal inhibitory concentration (IC50) came to 120 nM.
In the case of `Cc1ccnc(Nc2cc3ccn(C)c(=O)c3c(Nc3ccc(C4CCN(CCS(C)(=O)=O)CC4)cc3)n2)c1` [compound 311], the IC50 was 496 nM.
With `CC(C)CNc1nc(Nc2ccccn2)cc2cc[nH]c(=O)c12` [compound 288], the 50% inhibitory concentration (IC50) was found to be 694 nM.
With `CC[C@H](C)Nc1nc(Nc2ccccn2)cc2cc[nH]c(=O)c12` [compound 290], the IC50 was 271 nM.
Consider `CCn1ccc2cc(Nc3cc(C)ccn3)nc(N[C@H]3CCCC[C@H]3O)c2c1=O` (racemic) [compound 408], for which the IC50 is 324 nM.
Regarding `CC(C)(C)Nc1nc(Nc2cnccn2)cc2ccn(CCO)c(=O)c12` [compound 459], the IC50 was 52 nM.
Take `CNS(=O)(=O)c1ccc(Nc2nc(Nc3cnccn3)cc3ccn(C)c(=O)c23)cc1` [compound 350]: the half-inhibitory concentration (IC50) came to 803 nM.
As for `CCn1ccc2cc(-c3cnc(N)nc3)nc(NC3CC3)c2c1=O` [compound 37], the IC50 came to 69 nM.
With `Cc1cc(-c2cc3cc[nH]c(=O)c3c(Nc3ccc([C@H]4CC[C@H](N5CCOCC5)CC4)cc3)n2)cnc1N` [compound 100], the IC50 was determined as 193 nM.
Regarding `Cc1ccc(-c2cc3cc[nH]c(=O)c3c(Nc3ccc(C4CCN(CCCF)CC4)c(C)c3)n2)cn1` [compound 46], the IC50 is 37 nM.
As for `COc1nc(-c2cc3cc[nH]c(=O)c3c(Nc3ccc(C4CCNCC4)c(C)c3)n2)cnc1N` [compound 168], the IC50 turned out to be 4 nM.
Turning to `Cc1ncc(-c2cc3cc[nH]c(=O)c3c(Nc3ccc(C4CCN(C5CS(=O)(=O)C5)CC4)c(C)c3)n2)cn1` [compound 107], the IC50 is 117 nM.

The values are drawn from US20110053897A1 (IRM LLC, priority 2009, published 2011).
